Reference: patent publication US8623995B2, “Peptide conjugates and fluorescence detection methods for intracellular caspase assay” (Applied Biosystems, LLC, priority 2001, dated 2014)
One block for each molecule: values may come before it. The star is where a group is joined. Cbz = O=C(OCc1ccccc1)*; CH2F = FC*

Key:
NT-2 cells = assay: Intracellular caspase assay on FMAT 8100 HTS System with peptide conjugate 9: apoptosis induction; type: cell-based, Human
Method: (§1) One method for introducing the peptide conjugates into cells to induce apoptosis and measure caspase activity includes the following steps: • 1. Plate the eukaryotic cells in RPMI 1640 media in the wells of a tissue culture-treated 96-well plate at 37° C. The cells will adhere to well bottoms in 1 to 24 hours. Any number of different sample cells or any combination of cells, inhibitors or apoptosis inducers can be assayed. Typically 10,000 cells per well are plated in about 100 μl of tissue culture media. • 2. Add an apoptosis inducer, e.g. camptothecin or staurosporine, dissolved in media and/or solvent. Different concentrations can be used to study dose-response. • 3. Let the cells stand for about 24 hours at 37° C., depending on the inducer. • 4. Add the peptide conjugate, dissolved in media and/or solvent in a range of 1 to 10 μM, e.g. 2.5 μM, to every well, including controls. Let stand for about 90 minutes at 37° C. • 5. Transfer plates to a fluorescent plate reading device, cell sorter, flow cytometer, laser imager, microscope, or other device and read the content of the wells.
(§2) A data spreadsheet assigns numerical values of fluorescence intensity and peak heights. The greyscale image has intensity content, like an autoradiogram. […] The cells are simply counted by a cell counting algorithm as either blue or red depending on the ratio of channel 2 to channel 1 fluorescence intensity, and independent of intensity values. The fraction of apoptotic cells is determined by identifying the apoptotic population in each well and dividing by the total number of cells detected. The ratio of red (channel 2) to blue (channel 1) inversely correlates to the apoptotic fraction. In other words:
[formula] […] Effects of introducing apoptosis inducers and caspase inhibitors to different cells under variable conditions can thus be measured by the mix-and-read protocols on the FMAT 8100 System. A dose response is determined when this fraction (% apoptotic) is plotted as a function of the concentration of camptothecin in the well (FIG. 11), and other apoptosis inducers (FIGS. 12 and 13). […]

HeLa cells = assay: Intracellular caspase assay with peptide conjugate 9: apoptosis induction; type: cell-based, Human; settings: peptide conjugate 9 (FIG. 13)
Method: as §1, with “Plate the eukaryotic cells in RPMI 1640 media in the wells of a tissue culture-treated 96-well plate at 37° C.” left out, “Add the peptide conjugate, dissolved in media and/or solvent in a range of 1 to 10 μM, e.g. 2.5 μM, to every well, including controls.” left out
as §2, with “The ratio of red (channel 2) to blue (channel 1) inversely correlates to the apoptotic fraction. In other words:” left out

Jurkat cells = assay: as above; type: cell-based, Human; settings: peptide conjugate 9 (FIG. 13)
Method: as §1, with “Plate the eukaryotic cells in RPMI 1640 media in the wells of a tissue culture-treated 96-well plate at 37° C.” left out, “Add the peptide conjugate, dissolved in media and/or solvent in a range of 1 to 10 μM, e.g. 2.5 μM, to every well, including controls.” left out
as §2, with “The ratio of red (channel 2) to blue (channel 1) inversely correlates to the apoptotic fraction. In other words:” left out

caspase = molecular target: T1, caspase (Homo sapiens, UniProt P42574); assay: Intracellular caspase assay on FMAT 8100: caspase inhibitors on cleavage of peptide conjugate 9 in NT-2 cells; type: cell-based; settings: inhibitor at 50 μM, NT-2 cells with CMP to induce apoptosis (FIG. 10)
T1 construct: endogenous in cells; host or cells: NT-2 cells
T1 sequence (P42574 29-175 limits assumed): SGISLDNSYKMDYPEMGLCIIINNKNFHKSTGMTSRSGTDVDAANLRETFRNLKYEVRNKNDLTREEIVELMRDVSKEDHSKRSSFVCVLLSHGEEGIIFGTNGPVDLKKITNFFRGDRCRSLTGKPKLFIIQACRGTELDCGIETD
T1 sequence (P42574 176-277 limits assumed): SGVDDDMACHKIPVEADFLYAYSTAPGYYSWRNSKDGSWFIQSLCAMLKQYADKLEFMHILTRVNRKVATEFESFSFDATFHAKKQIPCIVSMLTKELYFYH
Method: as §1, with “Plate the eukaryotic cells in RPMI 1640 media in the wells of a tissue culture-treated 96-well plate at 37° C.” left out, “Add the peptide conjugate, dissolved in media and/or solvent in a range of 1 to 10 μM, e.g. 2.5 μM, to every well, including controls.” left out
The plate was incubated at 37° C. for 90 minutes.

Molecule: CC[C@@]1(O)C(=O)OCc2c1cc1n(c2=O)Cc2cc3ccccc3nc2-1 [camptothecin]
Induction of apoptosis / caspase activity (donor dye emission, channel 1) (NT-2 cells; 500 nM, peptide conjugate 9 (FIG. 9)): caspase activity is evident
Dose response: fraction of apoptotic cells (NT-2 cells; 0.0001 to 10 μM, 24 hours, peptide conjugate 9 (FIG. 11)): fraction of apoptotic cells correlates with camptothecin concentration

Molecule: COc1cccc2c1C(=O)c1c(O)c3c(c(O)c1C2=O)C[C@@](O)(C(=O)CO)C[C@@H]3O[C@H]1C[C@H](N)[C@H](O)[C@H](C)O1 [doxirubicin]
Concentration above which most of the cells were detected as apoptotic (NT-2 cells; peptide conjugate 9 (FIG. 12)): about 0.1 μM

Molecule: CN[C@@H]1C[C@H]2O[C@@](C)([C@@H]1OC)n1c3ccccc3c3c4c(c5c6ccccc6n2c5c31)C(=O)NC4 [staurosporine]
Threshold concentration above which fraction of apoptotic cells correlates with concentration (HeLa cells): ~0.5 µM
Threshold concentration above which fraction of apoptotic cells correlates with concentration (Jurkat cells): about 0.05 μM

Suppression of cleavage of peptide conjugate 9 (caspase): complete suppression
Molecule: Cbz-Val-Ala-Asp-CH2F
